# Test results from US20250368624A1, “M24B AMINOPEPTIDASE INHIBITORS FOR CARD8 INFLAMMASOME ACTIVATION” (Memorial Sloan-Kettering Cancer Center, priority 2022, published 2025).
# What was measured:
# recombinant human PEPD = recombinant human PEPD (Homo sapiens (Human), UniProt P12955); assay: PEPD substrate assay (Ala-Pro cleavage, L-alanine assay kit); type: biochemical; details: 50 nM recombinant human PEPD, Ala-Pro 40 μM, 25° C.
# Experimental: Protein purification. Human prolidase (PEPD) was generated and purified. XPNPEP1 in pET15-b containing a 6× His tag was expressed in E. coli Rosetta DE3 cells.
# Substrate assays. For the PEPD assay, a solution of substrate (Ala-Pro) was prepared in DMSO. 24 μL of 50 nM recombinant human PEPD were added to a 384-well, black, clear-bottom plate (Corning) with 1 μL dipeptide Ala-Pro (final conc. 40 μM). […] For the AMC reporter assays, experiments were performed with cell lysates. 5 μL solution of substrate (2.5 mM Ala-AMC) was added the mixture of 10 μL HEK293T cell lysates (2.5 mg/ml) and 10 μL of indicated compounds in a 384-well, black, clear-bottom plate (Corning) to initiate the reaction. Substrate cleavage was measured as increasing fluorescence signal (Ex/Em: 380/460 nm) recorded at 25° C. for 20 mins. […] H-Lys(abz)-Pro-Pro-pNA substrate was added to a final concentration of 100 μM, and fluorescence was monitored (Ex/Em: 320/410) for 60 mins.
# XPNPEP1 = XPNPEP1 (Homo sapiens (Human), UniProt Q9NQW7); assay: XPNPEP1 substrate assay (H-Lys(abz)-Pro-Pro-pNA); type: biochemical; details: XPNPEP1 3.5 nM, substrate 100 μM, 60 mins
# Experimental: Protein purification. Human prolidase (PEPD) was generated and purified. XPNPEP1 in pET15-b containing a 6× His tag was expressed in E. coli Rosetta DE3 cells. Cells were induced with IPTG for 16 h at 37° C., pelleted and lysed in buffer A (20 mM Tris-HCl (pH 7.9), 500 mM NaCl, and 10% (v/v) glycerol) by sonication. Affinity purification chromatography was performed using TALON resin and according to previously published protocols (Li et al., 2008).
# Substrate assays. For the PEPD assay, a solution of substrate (Ala-Pro) was prepared in DMSO. 24 μL of 50 nM recombinant human PEPD were added to a 384-well, black, clear-bottom plate (Corning) with 1 μL dipeptide Ala-Pro (final conc. 40 μM). Alanine liberated was measured as increasing fluorescence signal (Resorufin, Ex/Em: 535/587 nm) recorded at 25° C. using an L-alanine assay kit (Abcam, ab83394) at 25° C. according to manufacturer's instructions. For the AMC reporter assays, experiments were performed with cell lysates. 5 μL solution of substrate (2.5 mM Ala-AMC) was added the mixture of 10 μL HEK293T cell lysates (2.5 mg/ml) and 10 μL of indicated compounds in a 384-well, black, clear-bottom plate (Corning) to initiate the reaction. Substrate cleavage was measured as increasing fluorescence signal (Ex/Em: 380/460 nm) recorded at 25° C. for 20 mins. For XPNPEP1 enzymes (XPNPEP1 3.5 nM) were plated on a black 384-well clear bottom plate and treated with the indicated doses of compounds. H-Lys(abz)-Pro-Pro-pNA substrate was added to a final concentration of 100 μM, and fluorescence was monitored (Ex/Em: 320/410) for 60 mins.
# MV4;11 WT cells = assay: CellTiter-Glo cell viability, WT MV4;11 cells; type: cell-based
# Experimental: CellTiter-Glo cell viability and CytoTox-Fluor cell death assays. Cells were plated (2,000 cells per well) in white, 384-well clear-bottom plates (Corning) using an EL406 Microplate Washer/Dispenser (BioTek) in 25 μL final volume of medium. To the cell plates were added compounds at different concentrations using a pintool (CyBio) and the plates were allowed to incubate in the incubator. After incubation for indicated times, CytoTox-Fluor reagent (Promega, G9262) was added according to the manufacturer's protocol. The assay plates were then incubated for another 30 min before fluorescence was recorded using a Cytation 5 Cell Imaging Multi-Mode Reader (BioTek). Next, CellTiter-Glo reagent (Promega, G7573) was subsequently added to the assay plates following the manufacturer's protocol. Assay plates were shaken on an orbital shaker for 2 min and incubated at 25° C. for 10 min. Luminescence was then read using a Cytation 5 Cell Imaging Multi-Mode Reader (BioTek).
# recombinant human PEPD, sequence (P12955 whole entry): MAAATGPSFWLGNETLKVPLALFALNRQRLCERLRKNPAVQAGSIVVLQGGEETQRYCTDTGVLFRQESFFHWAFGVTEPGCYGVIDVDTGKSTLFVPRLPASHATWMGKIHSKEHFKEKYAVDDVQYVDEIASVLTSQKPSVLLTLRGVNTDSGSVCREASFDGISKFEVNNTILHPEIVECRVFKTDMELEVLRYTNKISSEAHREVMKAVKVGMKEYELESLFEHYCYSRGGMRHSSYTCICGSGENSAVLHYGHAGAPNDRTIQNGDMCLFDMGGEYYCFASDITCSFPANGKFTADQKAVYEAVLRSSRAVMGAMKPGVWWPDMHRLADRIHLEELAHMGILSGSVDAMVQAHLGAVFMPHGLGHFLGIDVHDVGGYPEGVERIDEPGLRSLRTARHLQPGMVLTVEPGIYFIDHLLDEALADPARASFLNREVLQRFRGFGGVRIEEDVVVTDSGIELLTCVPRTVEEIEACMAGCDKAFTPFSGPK
# XPNPEP1, sequence (Q9NQW7 whole entry): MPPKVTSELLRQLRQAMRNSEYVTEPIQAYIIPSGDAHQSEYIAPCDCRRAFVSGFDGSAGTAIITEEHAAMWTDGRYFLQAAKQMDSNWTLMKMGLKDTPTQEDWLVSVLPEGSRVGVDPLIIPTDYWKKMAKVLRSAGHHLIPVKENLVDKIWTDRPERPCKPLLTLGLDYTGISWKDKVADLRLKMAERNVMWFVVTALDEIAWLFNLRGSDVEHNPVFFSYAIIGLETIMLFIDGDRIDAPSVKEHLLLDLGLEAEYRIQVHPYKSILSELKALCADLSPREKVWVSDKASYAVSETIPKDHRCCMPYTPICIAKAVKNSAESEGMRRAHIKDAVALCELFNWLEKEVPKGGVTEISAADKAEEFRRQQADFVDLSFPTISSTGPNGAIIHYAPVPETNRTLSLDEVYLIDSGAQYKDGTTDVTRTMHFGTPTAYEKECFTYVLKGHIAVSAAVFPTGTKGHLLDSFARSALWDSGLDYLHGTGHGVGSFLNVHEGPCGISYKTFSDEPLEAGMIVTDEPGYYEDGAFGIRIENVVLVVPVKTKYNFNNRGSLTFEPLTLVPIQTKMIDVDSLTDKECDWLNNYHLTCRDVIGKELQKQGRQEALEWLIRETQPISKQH
SMILES,IC50 (recombinant human PEPD) [µM],IC50 (XPNPEP1) [µM],"cytotoxicity to MV4;11 cells (in words) (MV4;11 WT cells; 24 h, CTG)","overall activity (PEPD/XPNPEP1 inhibition and cytotoxicity, Table 6 and FIG. 2), in words (MV4;11 WT cells)"
"CONC(=O)[C@H](CC(C)C)NC(=O)[C@@H]1CCCN1C(=O)[C@@H](O)[C@H](N)CC(C)C [CQ111, (S)-1-((2S,3R)-3-amino-2-hydroxy-5-methylhexanoyl)-N—((S)-1-(methoxyamino)-4-methyl-1-oxopentan-2-yl)pyrrolidine-2-carboxamide]",14,84,–,–
CCCC[C@@H](N)[C@H](O)C(=O)N1CCC[C@H]1C(=O)OC [CQ63],0.53,92,–,–
"CC(C)C[C@@H](N)[C@H](O)C(=O)N1CCC[C@H]1c1nnn[nH]1 [CQ99, (2S,3R)-1-((S)-2-(1H-tetrazol-5-yl)pyrrolidin-1-yl)-3-amino-2-hydroxy-5-methylhexan-1-one]",6.2,67,inactive in cells,–
"COC(=O)[C@@H]1CCCN1C(=O)[C@@H](O)[C@H](N)CCC(F)(F)F [CQ43, Methyl ((2S,3R)-3-amino-6,6,6-trifluoro-2-hydroxyhexanoyl)-L-prolinate]",1.3,115,–,–
"COC(=O)[C@@H]1CCCN1C(=O)[C@@H](O)[C@H](N)CC(C)(C)C [CQ45, Methyl ((2S,3R)-3-amino-2-hydroxy-5,5-dimethylhexanoyl)-L-prolinate]",1.5,57,–,–
"COC(=O)[C@@H]1CCCN1C(=O)[C@@H](O)[C@H](N)Cc1ccccc1 [CQ42, Methyl ((2S,3R)-3-amino-2-hydroxy-4-phenylbutanoyl)-L-prolinate]",7.6,241,–,–
"CC(C)C[C@@H](N)[C@H](O)C(=O)N1CCCC1 [CQ76, (2S,3R)-3-amino-2-hydroxy-5-methyl-1-(pyrrolidin-1-yl)hexan-1-one]",> 100,38,–,abrogated all activity
"CC(C)C[C@H](NC(=O)[C@@H]1CCCN1C(=O)[C@@H](O)[C@H](N)CC(C)C)C(N)=O [CQ96, (S)-1-((2S,3R)-3-amino-2-hydroxy-5-methylhexanoyl)-N—((S)-1-amino-4-methyl-1-oxopentan-2-yl)pyrrolidine-2-carboxamide]",7.5,10,–,–
"CC(C)C[C@H](NC(=O)[C@@H]1CCCN1C(=O)[C@@H](O)[C@H](N)CC(C)C)C(=O)NS(=O)(=O)N(C)C [CQ113, (S)-1-((2S,3R)-3-amino-2-hydroxy-5-methylhexanoyl)-N—((S)-1-((N,N-dimethylsulfamoyl)-amino)-4-methyl-1-oxopentan-2-yl)pyrrolidine-2-carboxamide]",0.56,2.9,–,–
"COC(=O)[C@@H]1CCCN1C(=O)[C@@H](O)[C@H](N)c1ccccc1 [CQ64, Methyl ((2S,3R)-3-amino-2-hydroxy-3-phenylpropanoyl)-L-prolinate]",2.8,203,–,–
"CC(C)C[C@H](NC(=O)[C@@H]1CCCN1C(=O)[C@@H](O)[C@H](N)CC(C)C)C(=O)N1CCC1 [CQ112, (S)-1-((2S,3R)-3-amino-2-hydroxy-5-methylhexanoyl)-N—((S)-1-(azetidin-1-yl)-4-methyl-1-oxopentan-2-yl)pyrrolidine-2-carboxamide]",66,95,–,–
"COC(=O)[C@@H]1C[C@H](C)CN1C(=O)[C@@H](O)[C@H](N)CC(C)C [CQ38, Methyl (2S,4S)-1-((2S,3R)-3-amino-2-hydroxy-5-methylhexanoyl)-4-methylpyrrolidine-2-carboxylate]",2.2,154,–,–
"CC(C)C[C@H](NC(=O)[C@@H]1CCCN1C(=O)[C@@H](O)[C@H](N)CC(C)C)C(=O)NCCc1ccc(-c2ccccc2)cc1 [CQ119, (S)—N—((S)-1-((2-([1,1′-biphenyl]-4-yl)ethyl)amino)-4-methyl-1-oxopentan-2-yl)-1-((2S,3R)-3-amino-2-hydroxy-5-methylhexanoyl)pyrrolidine-2-carboxamide]",14,1.7,–,–
"CC(C)C[C@H](NC(=O)[C@@H]1CCCN1C(=O)[C@@H](O)[C@H](N)CC(C)C)C(=O)NCCF [CQ114, (S)-1-((2S,3R)-3-amino-2-hydroxy-5-methylhexanoyl)-N—((S)-1-((2-fluoroethyl)amino)-4-methyl-1-oxopentan-2-yl)pyrrolidine-2-carboxamide]",0.72,7,–,–
"CC(C)C[C@H](NC(=O)[C@@H]1CCCN1C(=O)[C@@H](O)[C@H](N)CC(C)C)C(=O)NCCc1ccc2ccccc2c1 [CQ117, (S)-1-((2S,3R)-3-amino-2-hydroxy-5-methylhexanoyl)-N—((S)-4-methyl-1-((2-(naphthalen-2-yl)ethyl)amino)-1-oxopentan-2-yl)pyrrolidine-2-carboxamide]",7.6,2.2,–,–
"COC(=O)[C@@H]1CCCN1C(=O)[C@@H](O)[C@H](N)C(C)C [CQ59, Methyl ((2S,3R)-3-amino-2-hydroxy-4-methylpentanoyl)-L-prolinate]",1.8,190,–,–
"COC(=O)[C@@H]1CC2(CC2)CN1C(=O)[C@@H](O)[C@H](N)CC(C)C [CQ36, Methyl (S)-5-((2S,3R)-3-amino-2-hydroxy-5-methylhexanoyl)-5-azaspiro[2.4]heptane-6-carboxylate]",1,324,–,–
"CC(C)C[C@H](NC(=O)[C@@H]1CCCN1C(=O)[C@@H](O)[C@H](N)CC(C)C)C(=O)NC(C)(C)C [CQ115, (S)-1-((2S,3R)-3-amino-2-hydroxy-5-methylhexanoyl)-N—((S)-1-(tert-butylamino)-4-methyl-1-oxopentan-2-yl)pyrrolidine-2-carboxamide]",3.7,14,–,–
"COC(=O)[C@@H]1CCCN1C(=O)[C@@H](O)[C@H](N)c1cccs1 [CQ70, Methyl ((2S,3S)-3-amino-2-hydroxy-3-(thiophen-2-yl)propanoyl)-L-prolinate]",2,65,–,–
"COC(=O)[C@@H]1CCCN1C(=O)[C@@H](O)[C@H](N)c1ccc2ccoc2c1 [CQ69, Methyl ((2S,3R)-3-amino-3-(benzofuran-6-yl)-2-hydroxypropanoyl)-L-prolinate]",1.8,47,–,–
"COC(=O)[C@@H]1CCCN1C(=O)[C@@H](O)[C@H](N)c1ccco1 [CQ68, Methyl ((2S,3S)-3-amino-3-(furan-2-yl)-2-hydroxypropanoyl)-L-prolinate]",1.7,69,–,–
"CC(C)C[C@H](NC(=O)[C@@H]1CCCN1C(=O)[C@@H](O)[C@H](N)CC(C)C)C(=O)N(C)C [CQ109, (S)-1-((2S,3R)-3-amino-2-hydroxy-5-methylhexanoyl)-N—((S)-1-(dimethylamino)-4-methyl-1-oxopentan-2-yl)pyrrolidine-2-carboxamide]",4,11,–,–
"COC(=O)[C@@H]1C[C@H](F)CN1C(=O)[C@@H](O)[C@H](N)CC(C)C [CQ35, Methyl (2S,4S)-1-((2S,3R)-3-amino-2-hydroxy-5-methylhexanoyl)-4-fluoropyrrolidine-2-carboxylate]",0.84,74,–,–
"CC(C)CCNC(=O)[C@H](CC(C)C)NC(=O)[C@@H]1CCCN1C(=O)[C@@H](O)[C@H](N)CC(C)C [CQ110, (S)-1-((2S,3R)-3-amino-2-hydroxy-5-methylhexanoyl)-N—((S)-1-(isopentylamino)-4-methyl-1-oxopentan-2-yl)pyrrolidine-2-carboxamide]",1.5,14,–,–
